Measurements: ChEMBL document CHEMBL1146891, “Preparation of 1-(3-aminobenzo[d]isoxazol-5-yl)-1H-pyrazolo[4,3-d]pyrimidin-7(6H)-ones as potent, selective, and efficacious inhibitors of coagulation factor Xa” (Bioorg Med Chem Lett, 2006)
Structures can show the parent of a compound that is named as a salt.

Legend:
[1] = target: T1, Coagulation factor X (Homo sapiens, UniProt P00742); test: Binding affinity to human f10a
[2] = target: T1, Coagulation factor X; test: Anticoagulant activity in human plasma measured as activated partial thromboplastin time; type: functional, cell-free
[3] = target: T2, Coagulation factor VII/tissue factor (Homo sapiens) (UniProt P08709+P13726); test: Anticoagulant activity in human plasma measured as prothrombin time; type: functional, cell-free
[4] = Bioavailability in dog at 0.5 mg/kg, iv and 0.2 mg/kg, po; type: ADME, organism-based, Canis lupus familiaris; conditions: in vivo
[5] = Clearance in dog at 0.5 mg/kg, iv and 0.2 mg/kg, po; type: ADME, organism-based, Canis lupus familiaris; conditions: in vivo
[6] = Apparent permeability in Caco-2 cells; type: ADME, cell-based; conditions: human
[7] = Half life in dog at 0.5 mg/kg, iv and 0.2 mg/kg, po; type: ADME, organism-based, Canis lupus familiaris; conditions: in vivo
[8] = Volume of distribution in dog at 0.5 mg/kg, iv and 0.2 mg/kg, po; type: ADME, organism-based, Canis lupus familiaris; conditions: in vivo, read-out: Vdss
[9] = species on record: Homo sapiens; test: Selectivity for f10a over tPA
[10] = species on record: Homo sapiens; test: Selectivity for f10a over plasmin
[11] = species on record: Homo sapiens; test: Selectivity for f10a over chymotrypsin
[12] = target: Coagulation factor VII and X (Homo sapiens) (UniProt P00742+P08709); test: Selectivity for f10a over f7a; type: protein assay
[13] = species on record: Homo sapiens; test: Selectivity for f10a over trypsin
[14] = species on record: Homo sapiens; test: Selectivity for f10a over activated protein C
[15] = target: Coagulation factor X and plasma kallikrein (Homo sapiens) (UniProt P03952+P00742); test: Selectivity for f10a over plasma kallikrein; type: cell-free
[16] = target: T2, Coagulation factor VII/tissue factor (Homo sapiens); test: Anticoagulant activity in rabbit plasma measured as prothrombin time; type: functional, cell-free; conditions: Oryctolagus cuniculus, target entry is the homologue from another species
[17] = species on record: Homo sapiens; test: Selectivity for f10a over urokinase
[18] = target: Thrombin and coagulation factor X (Homo sapiens) (UniProt P00734+P00742); test: Selectivity for f10a over thrombin; type: protein assay
[19] = target: Prothrombin (Homo sapiens, UniProt P00734); test: Binding affinity to human thrombin
[20] = target: Urokinase-type plasminogen activator (Homo sapiens, UniProt P00749); test: Binding affinity to human urokinase
[21] = target: Tissue-type plasminogen activator (Homo sapiens, UniProt P00750); test: Binding affinity to human tPA
[22] = target: Plasminogen (Homo sapiens, UniProt P00747); test: Binding affinity to human plasmin
[23] = target: Trypsin (Homo sapiens, UniProt P07477+P07478+P35030); test: Binding affinity to human trypsin; type: protein assay
[24] = target: Coagulation factor IX (Homo sapiens, UniProt P00740); test: Binding affinity to human f9a
[25] = target: Chymotrypsinogen B (Homo sapiens, UniProt P17538); test: Binding affinity to human chymotrypsin
[26] = target: Vitamin K-dependent protein C (Homo sapiens, UniProt P04070); test: Binding affinity to human activated protein C
[27] = Protein binding in rabbit plasma; type: ADME, organism-based, Oryctolagus cuniculus; conditions: read-out: PPB (converted)

Sequence of Coagulation factor X and plasma kallikrein (Homo sapiens) (P00742 whole entry, looked up): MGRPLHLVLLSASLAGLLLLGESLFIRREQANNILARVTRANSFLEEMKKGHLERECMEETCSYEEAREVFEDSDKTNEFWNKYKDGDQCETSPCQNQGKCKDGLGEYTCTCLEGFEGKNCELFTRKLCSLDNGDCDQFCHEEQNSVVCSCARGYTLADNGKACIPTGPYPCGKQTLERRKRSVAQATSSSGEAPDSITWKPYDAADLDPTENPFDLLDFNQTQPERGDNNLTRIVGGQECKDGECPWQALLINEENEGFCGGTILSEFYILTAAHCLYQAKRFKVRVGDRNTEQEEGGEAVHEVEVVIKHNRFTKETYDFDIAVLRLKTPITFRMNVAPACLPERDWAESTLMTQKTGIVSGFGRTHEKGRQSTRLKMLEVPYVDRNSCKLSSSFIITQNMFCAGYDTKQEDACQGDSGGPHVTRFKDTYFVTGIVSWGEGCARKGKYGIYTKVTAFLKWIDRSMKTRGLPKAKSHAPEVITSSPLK
Sequence of Coagulation factor X and plasma kallikrein (Homo sapiens) (P03952 whole entry, looked up): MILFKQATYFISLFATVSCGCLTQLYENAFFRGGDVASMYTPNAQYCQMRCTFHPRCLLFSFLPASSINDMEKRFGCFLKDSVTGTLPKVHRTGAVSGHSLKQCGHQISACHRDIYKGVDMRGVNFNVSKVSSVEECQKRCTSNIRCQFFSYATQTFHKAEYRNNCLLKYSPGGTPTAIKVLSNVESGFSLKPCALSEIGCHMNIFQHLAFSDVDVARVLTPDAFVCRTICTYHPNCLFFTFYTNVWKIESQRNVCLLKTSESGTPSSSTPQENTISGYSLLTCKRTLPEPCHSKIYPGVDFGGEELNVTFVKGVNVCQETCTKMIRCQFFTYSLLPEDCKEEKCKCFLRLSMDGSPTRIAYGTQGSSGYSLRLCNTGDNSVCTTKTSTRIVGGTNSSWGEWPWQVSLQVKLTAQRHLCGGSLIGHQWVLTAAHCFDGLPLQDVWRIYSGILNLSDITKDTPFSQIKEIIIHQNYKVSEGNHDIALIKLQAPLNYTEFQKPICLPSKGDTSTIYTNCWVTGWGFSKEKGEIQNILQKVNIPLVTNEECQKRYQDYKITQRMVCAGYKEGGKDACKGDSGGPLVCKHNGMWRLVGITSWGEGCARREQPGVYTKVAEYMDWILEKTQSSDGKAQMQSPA
Sequence of Thrombin and coagulation factor X (Homo sapiens) (P00742 whole entry, looked up, other chains not shown): as the sequence (P00742 whole entry, looked up) above
T1 sequence (P00742 41-179 limits assumed): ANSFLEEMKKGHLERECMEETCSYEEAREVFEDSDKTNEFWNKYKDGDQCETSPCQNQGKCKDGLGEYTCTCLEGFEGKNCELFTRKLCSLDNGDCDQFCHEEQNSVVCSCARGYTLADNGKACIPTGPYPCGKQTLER
T1 sequence (P00742 235-488 limits assumed): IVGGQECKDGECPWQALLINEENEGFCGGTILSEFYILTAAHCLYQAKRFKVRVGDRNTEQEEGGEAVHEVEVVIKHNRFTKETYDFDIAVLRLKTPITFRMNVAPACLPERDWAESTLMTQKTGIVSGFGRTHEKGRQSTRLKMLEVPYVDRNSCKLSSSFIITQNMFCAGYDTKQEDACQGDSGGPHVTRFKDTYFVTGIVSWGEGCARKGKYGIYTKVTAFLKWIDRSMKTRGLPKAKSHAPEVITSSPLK
Sequence of Plasminogen (P00747 97-580 limits assumed): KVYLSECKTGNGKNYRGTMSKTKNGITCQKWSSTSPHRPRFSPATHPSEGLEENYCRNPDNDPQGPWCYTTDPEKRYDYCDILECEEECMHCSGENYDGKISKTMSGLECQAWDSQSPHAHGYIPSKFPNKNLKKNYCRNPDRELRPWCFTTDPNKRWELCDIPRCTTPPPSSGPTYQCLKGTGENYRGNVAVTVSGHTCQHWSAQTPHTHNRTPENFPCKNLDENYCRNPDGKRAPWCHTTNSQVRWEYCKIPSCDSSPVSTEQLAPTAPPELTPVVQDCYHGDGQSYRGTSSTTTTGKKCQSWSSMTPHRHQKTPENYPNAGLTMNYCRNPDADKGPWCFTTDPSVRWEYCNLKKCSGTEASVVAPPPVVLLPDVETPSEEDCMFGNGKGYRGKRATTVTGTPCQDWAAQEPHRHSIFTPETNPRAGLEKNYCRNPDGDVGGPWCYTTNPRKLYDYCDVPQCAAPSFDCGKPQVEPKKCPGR
Sequence of Plasminogen (P00747 581-810 limits assumed): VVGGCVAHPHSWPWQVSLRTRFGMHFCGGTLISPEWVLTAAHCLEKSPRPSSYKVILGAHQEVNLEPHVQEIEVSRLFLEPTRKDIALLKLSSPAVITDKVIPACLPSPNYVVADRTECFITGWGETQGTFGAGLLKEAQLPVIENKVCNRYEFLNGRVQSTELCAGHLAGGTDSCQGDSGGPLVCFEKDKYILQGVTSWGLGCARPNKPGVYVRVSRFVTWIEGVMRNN
Sequence of Chymotrypsinogen B (P17538 34-164 limits assumed, other chains not shown): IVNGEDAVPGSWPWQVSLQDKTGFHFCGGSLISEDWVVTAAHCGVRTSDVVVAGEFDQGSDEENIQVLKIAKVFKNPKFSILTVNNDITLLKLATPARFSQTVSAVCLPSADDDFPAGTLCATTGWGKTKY
Sequence of Chymotrypsinogen B (P17538 167-263 limits assumed, other chains not shown): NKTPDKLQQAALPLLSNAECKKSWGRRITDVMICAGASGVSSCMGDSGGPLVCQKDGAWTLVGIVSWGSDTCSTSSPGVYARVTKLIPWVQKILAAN
Sequence of Coagulation factor IX (P00740 47-191 limits assumed): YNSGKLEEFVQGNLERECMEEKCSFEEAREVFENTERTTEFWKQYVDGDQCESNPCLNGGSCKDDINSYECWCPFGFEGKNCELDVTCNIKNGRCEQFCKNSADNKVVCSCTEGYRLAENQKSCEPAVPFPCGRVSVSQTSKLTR
Sequence of Coagulation factor IX (P00740 227-461 limits assumed): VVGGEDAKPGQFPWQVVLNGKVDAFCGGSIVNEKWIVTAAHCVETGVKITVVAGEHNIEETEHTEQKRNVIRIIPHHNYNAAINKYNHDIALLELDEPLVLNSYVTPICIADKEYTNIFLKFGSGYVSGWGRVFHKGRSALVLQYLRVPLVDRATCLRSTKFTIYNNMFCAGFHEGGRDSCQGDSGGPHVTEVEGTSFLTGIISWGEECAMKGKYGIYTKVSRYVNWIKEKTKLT
Sequence of Tissue-type plasminogen activator (P00750 whole entry): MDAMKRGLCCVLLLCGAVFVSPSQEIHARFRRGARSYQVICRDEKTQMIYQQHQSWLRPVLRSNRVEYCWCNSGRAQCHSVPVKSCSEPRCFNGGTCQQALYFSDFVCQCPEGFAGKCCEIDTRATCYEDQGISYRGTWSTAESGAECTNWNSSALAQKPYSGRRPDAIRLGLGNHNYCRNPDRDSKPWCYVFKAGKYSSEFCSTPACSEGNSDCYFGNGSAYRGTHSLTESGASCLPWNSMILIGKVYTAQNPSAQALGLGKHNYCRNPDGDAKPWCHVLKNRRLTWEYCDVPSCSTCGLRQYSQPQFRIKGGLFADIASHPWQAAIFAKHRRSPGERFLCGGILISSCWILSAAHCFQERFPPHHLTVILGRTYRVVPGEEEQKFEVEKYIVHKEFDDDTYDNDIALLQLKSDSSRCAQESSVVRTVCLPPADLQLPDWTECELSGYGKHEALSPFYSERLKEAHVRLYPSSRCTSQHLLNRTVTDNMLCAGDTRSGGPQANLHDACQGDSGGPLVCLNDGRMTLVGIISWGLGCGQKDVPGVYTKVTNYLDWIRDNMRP
Sequence of Vitamin K-dependent protein C (P04070 43-197 limits assumed): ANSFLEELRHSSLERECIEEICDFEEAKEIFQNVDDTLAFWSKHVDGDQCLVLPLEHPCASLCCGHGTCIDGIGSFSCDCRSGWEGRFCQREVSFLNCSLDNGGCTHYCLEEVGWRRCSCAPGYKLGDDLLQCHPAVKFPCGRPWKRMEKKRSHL
Sequence of Vitamin K-dependent protein C (P04070 212-461 limits assumed): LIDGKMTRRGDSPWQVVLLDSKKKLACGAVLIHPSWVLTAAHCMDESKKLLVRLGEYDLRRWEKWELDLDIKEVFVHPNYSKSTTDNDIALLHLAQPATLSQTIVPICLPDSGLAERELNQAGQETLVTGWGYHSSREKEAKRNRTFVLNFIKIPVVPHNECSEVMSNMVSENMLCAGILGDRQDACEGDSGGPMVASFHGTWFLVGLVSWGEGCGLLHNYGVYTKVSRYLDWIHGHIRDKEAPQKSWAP

CN(C)Cc1ccccc1-c1ccc(-c2cnc3c(C(F)(F)F)nn(-c4ccc5onc(N)c5c4)c3c2O)cc1
Ki [1]: 3.2 nM

Cc1nn(-c2ccc3onc(N)c3c2)c2c(=O)n(-c3ccc(-c4ccccc4CNC(C)C)cc3)cnc12
Ki [1]: 1.5 nM
2aPTT [2]: 3 µM
2PT [3]: 1.9 µM

Cc1nc2c(C(F)(F)F)nn(-c3ccc4onc(N)c4c3)c2c(=O)n1-c1ccc(-c2ccccc2CN2CC[C@@H](O)C2)cc1 [listing 1 of 2 here]
Ki [1]: 0.18 nM

Cc1nn(-c2ccc3onc(N)c3c2)c2c(=O)n(-c3ccc(-c4ccccc4CN4CC[C@H](O)C4)cc3)cnc12
Ki [1]: 0.5 nM
2aPTT [2]: 4.3 µM
2PT [3]: 2.1 µM

CN(C)Cc1ccccc1-c1ccc(N2CNc3c(C(F)(F)F)nn(-c4ccc5onc(N)c5c4)c3C2=O)cc1
2aPTT [2]: 1.7 µM

Cc1nn(-c2ccc3onc(N)c3c2)c2c(=O)n(-c3ccc(-c4ccccc4CN(C)C)cc3)c(C)nc12.O=C(O)C(F)(F)F
bioavailability [4]: 23%
clearance [5]: 28.3 mL/min/kg
Papp [6]: 6.1 ×10⁻⁶ cm/s
half-life [7]: 4.2 h
Vd [8]: 8.9 L/kg

Cc1nc2c(C(F)(F)F)nn(-c3ccc4onc(N)c4c3)c2c(=O)n1-c1ccc(-c2ccccc2CNCC2CC2)cc1
Ki [1]: 0.5 nM
2aPTT [2]: 18.6 µM
2PT [3]: 10.9 µM

Cc1nn(-c2ccc3onc(N)c3c2)c2c(=O)n(-c3ccc(-c4ccccc4CN4CC[C@@H](O)C4)cc3)c(C)nc12
Ratio Ki [9]: > 1000
Ratio Ki [10]: > 1000
Ratio Ki [11]: > 1000
Ratio Ki [12]: > 1000
Ratio Ki [13]: > 1000
2aPTT [2]: 5.8 µM
Ratio Ki [14]: > 1000
Ratio Ki [15]: > 1000
2PT [16]: 3.4 µM
2PT [3]: 2.5 µM
Ratio Ki [17]: > 1000
Ratio Ki [18]: > 500

Cc1nc2c(C(F)(F)F)nn(-c3ccc4onc(N)c4c3)c2c(=O)n1-c1ccc(-c2ccccc2CN2CC[C@@H](O)C2)cc1 [listing 2 of 2 here]
2aPTT [2]: 28 µM
2PT [3]: 6.6 µM

Cc1nn(-c2ccc3onc(N)c3c2)c2c(=O)n(-c3ccc(-c4ccccc4CN(C)C)cc3)c(C)nc12
Ratio Ki [9]: > 1000
Ratio Ki [10]: > 1000
Ratio Ki [11]: > 1000
Ratio Ki [12]: > 1000
Ratio Ki [13]: > 1000
2aPTT [2]: 1.7 µM
Ratio Ki [14]: > 1000
Ratio Ki [15]: > 1000
2PT [16]: 1.8 µM
2PT [3]: 1.4 µM
Ratio Ki [17]: > 1000
Ratio Ki [18]: > 500

Nc1noc2ccc(-n3nc(C(F)(F)F)c4c3C(=O)N(c3ccc(-c5ccccc5CN5CC[C@@H](O)C5)cc3)CN4)cc12.O=C(O)C(F)(F)F
bioavailability [4]: 27%
clearance [5]: 16.3 mL/min/kg
Papp [6]: 3.9 ×10⁻⁶ cm/s
half-life [7]: 4.3 h
Vd [8]: 4.2 L/kg

Nc1noc2ccc(-n3nc(C(F)(F)F)c4c3C(=O)N(c3ccc(-c5ccccc5CN5CC[C@@H](O)C5)cc3)CN4)cc12 [listing 1 of 2 here]
Ki [1]: 0.21 nM
Ki [19]: 130 nM
Ki [20]: > 13000 nM
Ki [21]: > 33000 nM
Ki [22]: > 15000 nM
Ki [23]: > 4200 nM
Ki [24]: > 41000 nM
Ki [25]: 3240 nM
Ki [26]: > 20000 nM

Nc1noc2ccc(-n3nc(C(F)(F)F)c4c3C(=O)N(c3ccc(-c5ccccc5CN5CC[C@@H](O)C5)cc3)CN4)cc12 [listing 2 of 2 here]
Ratio Ki [9]: > 1000
Ratio Ki [10]: > 1000
Ratio Ki [11]: > 1000
Ratio Ki [12]: > 1000
Ratio Ki [13]: > 1000
2aPTT [2]: 2.9 µM
Ratio Ki [14]: > 1000
Ratio Ki [15]: > 1000
2PT [3]: 1.6 µM
Ratio Ki [17]: > 1000
Ratio Ki [18]: > 500

CCOC(=O)c1nn(-c2ccc3onc(N)c3c2)c2c(=O)n(-c3ccc(-c4ccccc4CN4CCCC4)cc3)cnc12
Ki [1]: 1.6 nM
2aPTT [2]: 1.6 µM
2PT [3]: 2.3 µM

Cc1nc2c(C(F)(F)F)nn(-c3ccc4onc(N)c4c3)c2c(=O)n1-c1ccc(-c2ccccc2CN(C)C)cc1.O=C(O)C(F)(F)F
bioavailability [4]: 63%
clearance [5]: 11.7 mL/min/kg
Papp [6]: 19 ×10⁻⁶ cm/s
half-life [7]: 14 h
Vd [8]: 13 L/kg

CN(C)Cc1ccccc1-c1ccc(-c2nnc3c(C(F)(F)F)nn(-c4ccc5onc(N)c5c4)c3c2O)cc1
Ki [1]: 5.5 nM

Cc1nn(-c2ccc3onc(N)c3c2)c2c(=O)n(-c3ccc(-c4ccccc4CNCC4CC4)cc3)cnc12
Ki [1]: 1.7 nM
2aPTT [2]: 8.1 µM
2PT [3]: 3.1 µM

Cc1nn(-c2ccc3onc(N)c3c2)c2c(=O)n(-c3ccc(-c4ccccc4CN4CC[C@@H](O)C4)cc3)c(C)nc12.O=C(O)C(F)(F)F
bioavailability [4]: 48%
clearance [5]: 20 mL/min/kg
Papp [6]: 4.7 ×10⁻⁶ cm/s
half-life [7]: 3.8 h
Vd [8]: 6.6 L/kg

Nc1noc2ccc(-n3nc(C(F)(F)F)c4[nH]c(=O)n(-c5ccc(-c6ccccc6CN6CC[C@@H](O)C6)cc5)c(=O)c43)cc12
Ki [1]: 0.11 nM
2aPTT [2]: 74.5 µM
2PT [3]: 24.1 µM

Cc1nn(-c2ccc3onc(N)c3c2)c2c(=O)n(-c3ccc(-c4ccccc4CN4CCCC4)cc3)cnc12
Ki [1]: 1.3 nM
2aPTT [2]: 1.6 µM
2PT [3]: 1.1 µM

Nc1noc2ccc(-n3nc(C(F)(F)F)c4[nH]c(=O)n(-c5ccc(-c6ccccc6CN6CCC(O)CC6)cc5)c(=O)c43)cc12
Ki [1]: 0.22 nM
2aPTT [2]: 352 µM
2PT [3]: 92.6 µM

Nc1nc2c(C(F)(F)F)nn(-c3ccc4onc(N)c4c3)c2c(O)c1-c1ccc(-c2ccccc2CN2CCC(O)CC2)cc1
Ki [1]: 0.77 nM
2aPTT [2]: 638 µM
2PT [3]: 230 µM

Cc1nn(-c2ccc3onc(N)c3c2)c2c(=O)n(-c3ccc(-c4ccccc4CN(C)C(C)C)cc3)c(C)nc12
Ki [1]: 0.35 nM
2aPTT [2]: 2 µM
2PT [3]: 4 µM

Cc1nn(-c2ccc3onc(N)c3c2)c2c(=O)n(-c3ccc(-c4ccccc4CN(C)C)cc3)cnc12
2aPTT [2]: 2.1 µM
2PT [3]: 1.3 µM

CN(C)Cc1nccn1-c1ccc(NC(=O)c2cc(C(F)(F)F)nn2-c2ccc3onc(N)c3c2)c(F)c1 [RAZAXABAN HYDROCHLORIDE]
fraction unbound [27]: 0.07

CN(C)Cc1nccn1-c1ccc(-n2c(=O)[nH]c3c(C(F)(F)F)nn(-c4ccc5onc(N)c5c4)c3c2=O)c(F)c1
Ki [1]: 0.35 nM
2aPTT [2]: 37.8 µM
2PT [3]: 14.9 µM

Cc1nc2c(C(F)(F)F)nn(-c3ccc4onc(N)c4c3)c2c(=O)n1-c1ccc(-c2ccccc2CN(C)C)cc1
2aPTT [2]: 9.2 µM
2PT [16]: 2.7 µM
2PT [3]: 4.1 µM

Cc1nn(-c2ccc3onc(N)c3c2)c2c(=O)n(-c3ccc(-c4ccccc4CN(C)C)cc3)cnc12.O=C(O)C(F)(F)F
bioavailability [4]: 2%
clearance [5]: 55 mL/min/kg
Papp [6]: 11 ×10⁻⁶ cm/s
half-life [7]: 2.5 h
Vd [8]: 9.5 L/kg

Cc1nc2c(C(F)(F)F)nn(-c3ccc4onc(N)c4c3)c2c(=O)n1-c1ccc(-c2ccccc2CN2CC[C@@H](O)C2)cc1.O=C(O)C(F)(F)F
bioavailability [4]: 58%
clearance [5]: 10 mL/min/kg
half-life [7]: 8.4 h
Vd [8]: 6.6 L/kg
